The source of these data is patent US8410247B2, “Water-soluble phosphinothiol reagents” (Wisconsin Alumni Research Foundation, priority 2008, dated 2013).

Converted amounts (≈) assume the structure as drawn. Read-outs that look alike come from different tables or passages of the source. Where only a bound is given, the exact number is not on record here.

The conditions of data set [1]: cited from earlier work; for pKa: ammonium pKa (Brown 1955).
For data set [2] the following is noted: Gly+Gly coupling in DMF/D2O (6:1), reported previously; cited from earlier work.
A short description of data set [3]: pKa determination by 31P NMR spectroscopy. In kind it is physicochemical. Particulars: control experiment, sodium phosphate buffer containing 20% v/v D2O. As to the method:
The pKa values of phosphinothiols 33-35 were determined to quantitate the impact of Coulombic effects. […] Thus, the phosphorous pKa value of the cationic phosphinothiols appears to be below the limit of experimental detection. […] (Moore, S. J.; Marzilli, L. G. Inorg. Chem. 1998, 37, 5329-810 5335.) That value is much larger than the phosphorous pKa of phosphinothiols 33-35, consistent with the present hypothesis that through-space Coulombic effects lower the pKa of neighboring atoms, and in particular discourage protonation of the key iminophosphorane intermediate.
pKa Determination of phosphinothiols […] (10 mg) were each dissolved in sodium phosphate buffer containing 20% v/v D2O. 750 The solution was adjusted with a solution of either 6 N HCl or 2 N NaOH, and chemical shifts at each pH were determined by ^31P NMR spectroscopy. An external standard (D3PO4) was used to calibrate the chemical shifts. […] (Podlaha, J.; Podlahova, J. Collect. Czech. Chem. Commun. 1973, 38, 1730-1736.)

Data set [4] can be described thus: Solubility in water or aqueous sodium phosphate buffer. In kind it is physicochemical. Particulars: 0.4 M sodium phosphate buffer (pH 7.8).
Data set [5] can be described thus: Stability in air / on storage. In kind it is physicochemical. The conditions noted are these: chloride salt, solid.

Broadly, the pKa is the pH at which an ionisable group is half protonated. On to `CCCCCCN` [CH3(CH2)5NH3^+], for which, in data set [1], the pKa is 10.63.

`CCCCCCCCCN` [CH3(CH2)8NH3^+]: the pKa in data set [1] is given as 10.65. For `COc1ccc(P(c2ccc(OC)cc2)c2ccc(OC)cc2)cc1` [(p-OMe-C6H4)3P], the “phosphorous pKa” value in data set [1] (in water (Moore 1998)) was 4.57. As for `Fc1ccc(P(c2ccc(F)cc2)c2ccc(F)cc2)cc1` [(p-F—C6H4)3P], in data set [1] (in water (Moore 1998)), the “phosphorous pKa” value was 1.97. Take `SCP(c1ccccc1)c1ccccc1` [phosphinothiol 1, (Diphenylphosphino)methanethiol]: in data set [2], the “second-order rate constant k2” value is 0.0077 M⁻¹ s⁻¹. For `O=C(O)CCP(CCC(=O)O)CCC(=O)O` [TCEP, tris(2-carboxyethyl)phosphine], the “pKa, reported value” in data set [1] (reported value (Podlaha 1973)) was 7.66. In data set [3], this molecule gave a pKa of 7.7. As to `c1ccc(P(c2ccccc2)c2ccccc2)cc1` [Ph3P], the “phosphorous pKa” value in data set [1] (in water (Moore 1998)) is reported as 2.73.

`NCCCCCN` [^+H3N(CH2)5NH3^+]: the pKa in data set [1] is 9.74. A word on the solubility: it is how much of the substance goes into solution per volume. In data set [4], `O=C(O)CNC(=O)c1ccc(P(CS)c2ccc(C(=O)NCC(=O)O)cc2)cc1` [phosphinothiol 9] registered a solubility of roughly 50 mM (≈ 21.7 mg/mL). With `NCCCCCCCCN` [^+H3N(CH2)8NH3^+], the pKa in data set [1] is on record as 10.10. Consider `CN(C)CCc1ccc(P(CS)c2ccc(CCN(C)C)cc2)cc1` [phosphinothiol 17, bis(p-dimethylaminoethyl) phosphinomethanethiol], for which the solubility in data set [4] (aqueous buffer, chloride salt, read-out: solubility) is greater than 1000 mM. Further, the stability in air entry in data set [5] is recorded as “stable in air for several days”.

Take `CCP(c1ccccc1)c1ccccc1` [EtPPh2]: the “phosphorous pKa” value in data set [1] (neutral mimic of HSCH2PPh2 (Moore 1998)) is reported as 4.90.
